Test results: patent US12214036B2, “Combination therapy comprising AXL/MER and PD-1/PD-L1 inhibitors” (Incyte Corporation, priority 2020, dated 2025)

Biological target: T1, MER (Homo sapiens, UniProt Q12866)
T1 sequence (Q12866 21-999): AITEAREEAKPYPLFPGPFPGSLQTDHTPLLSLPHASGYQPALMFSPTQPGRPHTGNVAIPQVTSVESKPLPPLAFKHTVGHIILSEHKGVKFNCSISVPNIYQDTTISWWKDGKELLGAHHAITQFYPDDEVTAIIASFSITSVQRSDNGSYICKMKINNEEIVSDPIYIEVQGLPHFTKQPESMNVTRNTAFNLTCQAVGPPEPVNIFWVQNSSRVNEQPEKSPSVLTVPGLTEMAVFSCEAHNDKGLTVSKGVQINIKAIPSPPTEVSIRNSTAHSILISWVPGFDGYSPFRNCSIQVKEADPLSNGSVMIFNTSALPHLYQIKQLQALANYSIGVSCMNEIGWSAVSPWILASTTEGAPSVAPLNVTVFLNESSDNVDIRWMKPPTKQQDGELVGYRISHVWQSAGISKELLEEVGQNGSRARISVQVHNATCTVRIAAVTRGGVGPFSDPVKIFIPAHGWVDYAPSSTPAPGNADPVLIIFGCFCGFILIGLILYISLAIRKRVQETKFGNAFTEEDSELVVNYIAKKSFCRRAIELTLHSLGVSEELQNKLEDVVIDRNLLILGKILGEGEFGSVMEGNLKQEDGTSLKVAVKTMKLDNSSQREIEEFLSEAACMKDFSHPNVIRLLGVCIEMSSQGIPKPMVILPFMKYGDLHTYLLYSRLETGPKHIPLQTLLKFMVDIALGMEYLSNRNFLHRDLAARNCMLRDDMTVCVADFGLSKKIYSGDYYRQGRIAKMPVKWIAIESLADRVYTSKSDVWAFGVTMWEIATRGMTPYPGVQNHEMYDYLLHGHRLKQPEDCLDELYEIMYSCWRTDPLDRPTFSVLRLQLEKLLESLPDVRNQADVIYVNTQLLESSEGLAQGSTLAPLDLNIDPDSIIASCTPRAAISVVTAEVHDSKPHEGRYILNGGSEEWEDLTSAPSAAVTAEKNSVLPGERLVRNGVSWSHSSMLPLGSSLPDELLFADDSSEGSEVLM
Assay: Inhibition of MER kinase activity in primary macrophages (Western blot)
Format: cell-based
Settings: primary macrophages from human PBMCs, 2 hours pretreatment, MAB8912 stimulation, N=2 (FIG. 4); read-out: IC50, pMER inhibition
Procedure: The ability of Compound 1 to modulate the activity of MER kinase in macrophages was evaluated.
Human peripheral blood mononuclear cells (PBMCs) were separated using Ficoll-Paque density gradient centrifugation and any remaining red blood cells (RBC) were lysed using 1×RBC Lysis Buffer (Cell Signaling Technology) for 5 minutes at room temperature. The PBMCs were washed with PBS before being enriched for monocytes using CD14 microbeads positive selection separation following the manufacturer's protocol as specified (AutoMacs Pro, Miltenyi Biotec, Bergisch Gladbach, Germany). […]
Macrophages were allowed to thaw on ice before being lysed with 250 μL/well of 1× Lysis Buffer (Cell Signaling Technology; #9803) and Halt protease and phosphatase inhibitors (ThermoFisher Scientific) for 1 hour at 4° C. […] Protein lysates were quantified using BCA Protein Assay Kit (Pierce, ThermoFisher Scientific; #23225). […] The membranes were washed again before the bands were detected with SuperSignal West Dura Extended Duration Chemiluminescent substrate (ThermoFisher Scientific) and were visualized using the Fluorochem M Digital Imager (Protein Simple, San Jose, Calif.).

CC(C)C(=O)N1CCC(c2cc(-c3ccc(NC(=O)c4cn(C(C)C)c(=O)n(-c5ccccn5)c4=O)cc3)c3c(N)ncnn23)CC1 [Compound 1, N-(4-(4-Amino-7-(1-isobutyrylpiperidin-4-yl)pyrrolo[1,2-f][1,2,4]triazin-5-yl)phenyl)-1-isopropyl-2,4-dioxo-3-(pyridin-2-yl)-1,2,3,4-tetrahydropyrimidine-5-carboxamide]
IC50: 1.6 ± 0.4 nM
